The results in this text go back to publication PMC12165799, “Antimicrobial peptide developed with machine learning sequence optimization targets drug resistant Staphylococcus aureus in mice” (The Journal of Clinical Investigation, 2025).

Data set [1] deals with S. aureus MW2 skin infection. The data set can be described thus: Skin-abraded murine infection, established infection model, bacterial load. Details: Bacterial load from skin specimens, established infection model / bacterial load in skin, Sup. Fig. 12: unit not given here. Conditions: for Bacterial load from skin specimens, established infection model: 2% ointment 24 hours after infection; for bacterial load in skin, Sup. Fig. 12: 2%, mice. In kind it is in vivo, mice. The protocol: (§1) 599 In vivo murine skin infection and treatment
(§2) 600 We used a topical skin-abraded murine infection model with minor modifications to test
(§3) 601 the in vivo efficacy of the CIT-8 peptide (25). We performed all mouse studies following the
(§4) 602 protocol approved by the Institutional Animal Care and Use Committee. In brief, we anesthetized
(§5) 603 female C57BL/6 mice (6 weeks) (Jackson Laboratory, Bar Harbor, ME, USA) with ketamine-
(§6) 604 xylazine (90 mg/kg ketamine and 10 mg/kg xylazine) via intraperitoneal injection. We shaved the
(§7) 605 dorsal side of the mice in the middle of the back (area=2 cm2). To disrupt skin integrity, we tape-
(§8) 606 stripped with Tensoplast® seven times in succession, replacing the tape each time, resulting in
(§9) 607 visibly damaged skin. We infected the damaged skin area with 1 × 10^7 CFU of S. aureus MW2
(§10) 608 (exponential phase bacteria in PBS) with an inoculum of 50 µl using a pipette tip. Ten minutes
(§11) 609 (prophylactic model) and 24 h (established model) after bacterial inoculation, we applied 30 mg
(§12) 610 of 1 and 2% (w/w) CIT-8 ointment in a white petroleum jelly base (Cat no. 19-090-843, Fisher
(§13) 611 Scientific, MA, USA) to the skin. We also included animal groups treated with only petroleum
(§14) 612 jelly or with 2% commercial mupirocin ointment as negative and positive controls, respectively.
(§15) 613 For pain management, we used the analgesic buprenorphine SR (0.05 mg/kg).
(§16) 614 After 24 h of treatment, we euthanized the animals, separated the skin from the underlying
(§17) 615 fascia and muscle tissue, and excised about 2 cm2 of skin from the infected area. We ground the
(§18) 616 skin in 1ml of PBS buffer (Gibco, MD, USA). We serially diluted 100 µl of the solution in PBS
(§19) 617 and plated it on Remel™ TSA plates (Fisher, MA, USA) to estimate viable colony counts after 18
(§20) 618 h of incubation at 37 °C. Further, we added 10 µl of EDTA-Free, protease inhibitor cocktail Set III
(§21) 619 (Millipore Sigma, MA, USA) to 500 µl of the ground skin PBS solution for cytokine estimation.
(§22) 620 The Cytokine Core, LLC (Indianapolis, IN, USA) performed the cytokine concentration analysis

The test system of data set [2] is S. aureus MW2 skin infection. The data set can be described thus: Skin-abraded murine infection, prophylactic (acute) model, bacterial load. The note with it: for Bacterial load from skin specimens, prophylactic model: 2% ointment 10 minutes after infection. In kind it is in vivo, mice. Here is the method: as §1, §2, §3, §4, §5, §6, §7, §8, §9, §10, §11, §12, §13, §14, §15, §16, §17, §18, §19, §20, §21, §22

A further data set concerns S. aureus MW2. The experiment in a line: Minimal inhibitory concentration (MIC) assay, broth microdilution. It counts as cell-based, Staphylococcus aureus. The note with it: S. aureus MW2; broth microdilution, TSB, 1 × 10^6 CFU/ml, 37°C 18 h, OD600, duplicate. Here is the method:
300 Synthesis of peptides
302 Piscataway, NJ, USA).
(§23) 305 Minimal inhibitory concentration (MIC) assay
(§24) We made serial dilutions of 10×
(§25) We determined the MIC using OD600
(§26) Accordingly, we added 150 mM NaCl,
(§27) 319 established protocol (5).
In general terms: In broth dilution the organism is exposed to a series of concentrations in liquid medium.

Data set [3] is described as follows: HPLC retention time on C18 reverse-phase column. It counts as physicochemical. The source says:
Table 1 Physical parameters and minimal inhibitory concentrations of citropin 1.1-derived peptides against S. aureus MW2 | column: rT^D (min)

The test system of data set [4] is S. aureus MW2 (MRSA) exponential and persister cells. The experiment in a line: S. aureus persister cell and time-kill assays (MW2). It counts as cell-based, Staphylococcus aureus. The note with it: within 120 minutes; ciprofloxacin 10 μg/mL, bithionol 10 μg/mL. Here is the method: as §23, §24, §25, §26, §27
(§28) 323 aureus VRS1) in PBS. To assess the killing kinetics of CIT-8 in persister cells, we added 1 ml of
(§29) 324 cell suspension to the wells of a 2-ml deep-well assay block (Cat no. 3960, Corning, NY, USA)
(§30) We also included ciprofloxacin (at 10 μg/ml) for S.
(§31) 326 aureus MW2 and linezolid (100 μg/ml) for S. aureus VRS1 as antibiotic controls. Additionally,
(§32) 327 we included bithionol (at 10 μg/ml) as a positive control, known for its ability to kill stationary
(§33) 328 phase persister cells (6). We incubated the plates at 37°C, with shaking at 225 rpm. At specific
(§34) 329 times (0, 15, 30, 60, and 120 min), we collected 10 μl samples, diluted them serially, and then
(§35) 330 plated them on tryptic soy agar (TSA) (BD Difco, NJ, USA) plates. We incubated the TSA plates
(§36) 331 for 18 hours at 37°C for colony counting. We performed these experiments in duplicate. As a
(§37) 332 comparison, we prepared the exponential cells of S. aureus MW2 and VRS1 in PBS and analyzed
(§38) 333 their killing kinetics in the same manner as described for persister cells.

The test system of data set [5] is S. aureus VRS1 (VRSA) exponential and persister cells. The data set can be described thus: S. aureus persister cell and time-kill assays (VRS1). In kind it is cell-based, Staphylococcus aureus. The note with it: within 120 minutes; bithionol 10 μg/mL, linezolid 100 μg/mL. The protocol:
as §23, §24, §25, §26, §27, §28, §29, §30, §31, §32, §33, §34, §35, §36, §37, §38

Another data set concerns HepG2 cells. The experiment in a line: Mammalian cell cytotoxicity assay.

Protocol for HepG2 cells: 410 the HepG2 cells at 37°C in 5% CO2 in Dulbecco’s Modified Eagle Medium (DMEM) (Gibco, MA,
We harvested and resuspended cells in fresh DMEM

Turning to `C/C(=C\C(=O)OCCCCCCCCC(=O)O)C[C@@H]1OC[C@H](C[C@@H]2O[C@H]2[C@@H](C)[C@H](C)O)[C@@H](O)[C@H]1O` [mupirocin, reference compound], the “Bacterial load from skin specimens, established infection model” value amounted to 5546493 in data set [1] (animal 1); 5663717 in data set [1] (animal 2); 38314176 in data set [1] (animal 3); 4793289 in data set [1] (animal 4); 8342990 in data set [1] (animal 5); 7083333 in data set [1] (animal 6). Besides, the “Bacterial load from skin specimens, established infection model” value in data set [1] (animal 7) is recorded as 21857924; in data set [1] (animal 8), 14962594. For the same compound, the “Reduction of S. aureus MW2 vs vehicle, established infection model” value in data set [1] (2% w/w ointment, single dose 24 hours after inoculation, n = 8) was 2.4 log. For the same compound, the “bacterial load in skin, Sup. Fig. 12” value is reported as 84745.8 in data set [1] (animal 1); 264317 in data set [1] (animal 2); 520833 in data set [1] (animal 3); 633914 in data set [1] (animal 4); 864198 in data set [1] (animal 5); 285714 in data set [1] (animal 6). Also, the “bacterial load in skin, Sup. Fig. 12” value is given as 1465201 in data set [1] (animal 7) and 754717 in data set [1] (animal 8). The “Bacterial load from skin specimens, prophylactic model” value came out at 500000 in data set [2] (animal 1); 380952 in data set [2] (animal 2); 320000 in data set [2] (animal 3); 47058.8 in data set [2] (animal 4); 200000 in data set [2] (animal 5); 34782.6 in data set [2] (animal 6). Further, the “Bacterial load from skin specimens, prophylactic model” value in data set [2] (animal 7) was 176000; in data set [2] (animal 8), 533333; in data set [2] (animal 9), 769231; in data set [2] (animal 10) it was 1538462; in data set [2] (animal 11), 289655; in data set [2] (animal 12), 252632. In data set [2] (2% w/w ointment, single treatment 10 minutes after inoculation, n = 12), the “Reduction of S. aureus MW2 burden vs vehicle, prophylactic model” value came to 2.8 log.
Regarding H-GLFKVIKKLLSVI-NH2 [CIT-7], in the data set with S. aureus MW2, the “MIC SA” value turned out to be 4 µg/mL. For the same compound, the “rT (HPLC retention time)” value in data set [3] was determined as 19.956 min.
Take `O=C(O)c1cn(C2CC2)c2cc(N3CCNCC3)c(F)cc2c1=O` [Ciprofloxacin]: in data set [4], the “Reduction of MRSA persister cells” value was “did not have any effect”.
Regarding H-GLFDVIKKVASVI-NH2 [CIT-1], the “MIC SA” value in the data set with S. aureus MW2 was greater than 32 µg/mL. The “rT (HPLC retention time)” value in data set [3] came out at 17.570 min.
For H-GLFSVIKKLLSVI-NH2 [CIT-6], in the data set on S. aureus MW2, the “MIC SA” value came out at 2 µg/mL. Moreover, the “rT (HPLC retention time)” value in data set [3] is reported as 23.302 min.
As for `CC(=O)NC[C@H]1CN(c2ccc(N3CCOCC3)c(F)c2)C(=O)O1` [linezolid], in data set [5], the “Reduction of VRSA persister cells” value was “no impact” and the “Reduction of exponentially growing VRSA” value was 0.7 logs.
With H-GLFKVIKKVASVI-NH2 [CIT-3], the “MIC SA” value against S. aureus MW2 was greater than 32 µg/mL. Besides, in data set [3], the “rT (HPLC retention time)” value amounted to 17.400 min.
Turning to `CNC(C)C1CCC(N)C(OC2C(N)CC(N)C(OC3OCC(C)(O)C(NC)C3O)C2O)O1` (centres unmarked) [gentamicin, reference compound], the “HepG2 cell viability, Sup. Fig. 4B” value with HepG2 cells (4 μg/ml, replicate 1) amounted to 100.314; with HepG2 cells (4 μg/ml, replicate 2), 105.383; in the data set with HepG2 cells (4 μg/ml, replicate 3), 105.587; in the data set with HepG2 cells (8 μg/ml, replicate 1), 101.846; in the data set with HepG2 cells (8 μg/ml, replicate 2), 103.015; in the data set with HepG2 cells (8 μg/ml, replicate 3), 101.846. The “HepG2 cell viability, Sup. Fig. 4B” value stood at 102.511 in the data set on HepG2 cells (16 μg/ml, replicate 1); 103.671 in the data set with HepG2 cells (16 μg/ml, replicate 2); 100.107 in the data set with HepG2 cells (16 μg/ml, replicate 3); 102.999 with HepG2 cells (32 μg/ml, replicate 1); 106.118 in the data set with HepG2 cells (32 μg/ml, replicate 2); 103.265 in the data set on HepG2 cells (32 μg/ml, replicate 3). The “HepG2 cell viability, Sup. Fig. 4B” value worked out at 103.75 in the data set on HepG2 cells (64 μg/ml, replicate 1); 104.801 in the data set on HepG2 cells (64 μg/ml, replicate 2); 97.7499 with HepG2 cells (64 μg/ml, replicate 3); 104.41 with HepG2 cells (128 μg/ml, replicate 1); 112.88 in the data set on HepG2 cells (128 μg/ml, replicate 2); 101.795 with HepG2 cells (128 μg/ml, replicate 3).
Turning to H-GLFDVIKKLLSVI-NH2 [CIT-5], the “MIC SA” value against S. aureus MW2 was greater than 32 µg/mL. Also, in data set [3], the “rT (HPLC retention time)” value is 22.300 min.
`Oc1c(Cl)cc(Cl)cc1Sc1cc(Cl)cc(Cl)c1O` [bithionol]: the “Reduction of MRSA persister cells” value in data set [4] is reported as 1.5 logs. In data set [5], the “Reduction of VRSA persister cells” value is listed as 1.5 logs and the “Reduction of exponentially growing VRSA” value is 1.0 logs.
Consider H-GLFKVIKKVAKVI-NH2 [CIT-4], for which the “MIC SA” value against S. aureus MW2 is greater than 32 µg/mL. For the same compound, the “rT (HPLC retention time)” value in data set [3] turned out to be 17.776 min.
The matching figures for H-GLFSVIKKVASVI-NH2 [CIT-2]: greater than 32 µg/mL and 15.711 min.
